Laboratory results taken from ChEMBL document CHEMBL3862012, “Methylene versus carbonyl bridge in the structure of new tubulin polymerization inhibitors with tricyclic A-rings” (Bioorg Med Chem, 2016).

Assays:
Ovis aries = organism: Ovis aries; experiment: Inhibition of sheep brain tubulin polymerization at 100 uM by DAPI staining-based fluorimetric method relative to control
[1] = Inhibition of sheep brain tubulin polymerization by DAPI staining-based fluorimetric method; parameters: species or system Ovis aries
[2] = Cytotoxicity against human K562 cells assessed as growth inhibition after 48 hrs by SRB assay; format: functional; conditions: K562, 48 h
[3] = Cytotoxicity against human HCT116 cells assessed as growth inhibition after 48 hrs by SRB assay; format: functional; conditions: HCT-116, 48 h
[4] = Cytotoxicity against human MDA-MB-435 cells assessed as growth inhibition after 48 hrs by SRB assay; format: functional; conditions: MDA-MB-435, 48 h
[5] = Cytotoxicity against human OVCAR3 cells assessed as growth inhibition after 48 hrs by SRB assay; format: functional; conditions: OVCAR-3, 48 h
[6] = Cytotoxicity against human A498 cells assessed as growth inhibition after 48 hrs by SRB assay; format: functional; conditions: A498, 48 h
[7] = Cytotoxicity against human NCI-H460 cells assessed as growth inhibition after 48 hrs by SRB assay; format: functional; conditions: NCI-H460, 48 h
[8] = Cytotoxicity against human SF295 cells assessed as growth inhibition after 48 hrs by SRB assay; format: functional; conditions: SF-295, 48 h
[9] = Cytotoxicity against human DU145 cells assessed as growth inhibition after 48 hrs by SRB assay; format: functional; conditions: DU-145, 48 h

SMILES | inhibition (Ovis aries) [%] | IC50 [1] [µM] | other results
COc1ccc(Cn2c3ccccc3c(=O)c3ccccc32)cc1F | 13 |  | 
COc1cc([C@@H]2c3cc4c(cc3C[C@H]3COC(=O)[C@@H]32)OCO4)cc(OC)c1OC [DESOXYPODOPHYLLOTOXIN] | 100 | 2 | 
COc1ccc(CN2c3ccccc3Sc3cccnc32)cc1F | 72 | 10.5 | 
COc1ccc(CN2c3ccccc3Oc3ccccc32)c(C(F)(F)F)c1 | 44 |  | 
COc1ccc(/C=C\c2cc(OC)c(OC)c(OC)c2)cc1O [COMBRETASTATIN A4] |  |  | GI50 [2]: 0.004 µM; GI50 [3]: 0.002 µM; GI50 [4]: 0.003 µM
COc1ccc(C(=O)c2cc(OC)c(OC)c(OC)c2)cc1O [PHENSTATIN] | 99 | 3.4 | GI50 [5]: 0.007 µM; GI50 [6]: 1.19 µM; GI50 [7]: 0.018 µM; GI50 [8]: 0.163 µM; GI50 [9]: 0.034 µM
COc1ccc(C(=O)N2c3ccccc3Sc3ccccc32)c(C(F)(F)F)c1 | 80 | 11.9 | 
